We go through 8 compounds from patent US8778643B2, “Methods for increasing lipid levels and producing triacylglycerols in algae” (priority 2012, dated 2014).

SMILES strings stand for the structures. Where two headings read alike, the source gives them in different places. Where only a bound is given, the exact number is not on record here.

In one assay the test system is Nannochloropsis sp. As to the kind of experiment: Microplate assay: increase of lipid production (Table 17). The class given is cell-based. Particulars: best conc. 2.4 nM. The text has this: We also tested a collection with more antioxidants, kinase inhibitors, and further compounds for increase of lipid production with N. salina, P. tricornutum, N. oculata, and Nannochloropsis sp.

Assay [1] relates to Nannochloropsis salina. The conditions noted are these: for effect on lipid production / lipid levels: microplate assay, multiple concentrations.
The subject of assay [2] is Nannochloris sp. Nature of the assay: Microplate assay: growth (absorbance 680 nm) and intracellular lipids (Nile Red fluorescence). The class given is cell-based. The conditions noted are these: for effect on lipid production / lipid levels: microplate assay, multiple concentrations; for Nile Red Fluorescence % Increase: Nannochloris sp., initial screening, p<0.05.
In assay [3] the test system is Phaeodactylum tricornutum. The assay is described as above. The class given is cell-based. The conditions noted are these: for % Inc: increase of lipid production, P. tricornutum; for effect on lipid production / lipid levels: microplate assay, multiple concentrations.
The subject of assay [4] is Nannochloropsis oculata. Particulars: for effect on lipid production / lipid levels: microplate assay, multiple concentrations.
A further assay deals with FABI. The conditions noted are these: cited from earlier work.
The target in a further assay is CDK4/cyclin D1 (Homo sapiens, UniProt P11802). The conditions noted are these: cited from earlier work.
In a further assay the target is Cdk2/cyclin A (Homo sapiens, UniProt P24941). Particulars: CDK2/A; cited from earlier work.
For assay [5], the system named is microalgae. As to the kind of experiment: 500 mL batch culture (growth, gravimetric lipids), algae strain not stated. The format is cell-based.
Assay [6] deals with Nannochloropsis oculata. Nature of the assay: Lipid composition of batch culture extracts (fatty acid saturation / PUFA by 1H NMR, MALDI-TOF, GC/MS). The format is cell-based.
Procedure: The nonpolar algal extracts were harvested from 500 mL cultures when indicated on growth curves, a minimum of 3 days into stationary phase. […] Cells were crushed and nonpolar lipids were extracted by sonication (Fisher Scientific Model 120 Sonic Dismembrator, ThermoFisher, San Jose) for 1 minute in chloroform, followed by chloroform-methanol extractions, washed with PBS butter, and dried under vacuum.^55-60 The crude non-polar algae extracts were then analyzed by ^1H Nuclear Magnetic Resonance (^1H NMR) for verification of TAG presence and examination of the purity of the extract (determination of level of chlorophyll). The extracts were then divided for analysis; one part for transesterification, one part to save as crude extract, and one part for SPE separation and MALDI-TOF analysis of TAGs.
Triacylglycerols can be isolated by solid-phase extraction (SPE) with 500 mg silica SPE cartridges (Silicycle, Quebec). The nonpolar extract is dissolved in 300 μL hexanes, and loaded on the SPE cartridge primed with hexanes. A mixture of 80:20:1 hexanes/diethyl ether/acetic acid was used as mobile phase to elute the TAGs.^61 SPE removes any chlorophyll in this process. Residual polar fraction containing polar lipids and chlorophyll was obtained by elution with acetone. All extracts and TAG fractions were dried under vacuum and stored under argon in amber vials at −20° C. before spectroscopic analysis. After SPE, the purified TAG fraction was reanalyzed with ^1H NMR spectroscopy for TAG characterization.
The TOF was in Reflectron mode with laser intensity from 5500-6500 Volts. Each acquisition consisted of 2500 shots with a focus mass of 900 Da, and a scan range of m/z 400-1100. Multiple acquisition scans were performed at different laser intensities to determine optimal conditions. Samples for the MALDI-TOF were diluted to 5 mg/mL in hexane, and spotted in the fast-evaporation method in a 1:2 ratio with DHB (2,5-dihydroxybenzoic acid) as the matrix. Re-spotting with methanol allowed for the matrix and sample to mix without hexane interactions, and allowed for better crystal formation. All samples on MALDI plate were allowed to dry before MS analysis. Data was normalized to base peak in all cases.
After the initial weight was recorded, the nonpolar extract set aside for transesterification was dissolved in 3.0 mL of 0.6 M sulfuric acid in methanol and stirred vigorously at 60° C. for 45 minutes.
Initial GC/MS temperature was 50° C. and end was 200° C. over at a one hour period for optimal FAME peak separation.
Peak assignment of fatty acids and their derivatives are based on NMR spectroscopic studies of previously reported algal lipid extracts^9 and comparison to standards such as olive oil (ACROS) and fatty acid mixtures.
(§1) We developed a quick and robust method to screen if the screened compound effect fatty acid saturation levels using ^1H NMR spectroscopy. The amount of saturated fatty acids (SFA), monounsaturated fatty acids (MUFAs), and polyunsaturated fatty acids (PUFAs) was determined using peak area ratios.
(§2) Calculated based on ^1H NMR integral ratios for the proton signals for the methyl group of PUFA components vs. the methyl groups of monounsaturated and saturated components.
In assay [7] the test system is Nannochloropsis oculata. As to the kind of experiment: 500 mL batch culture: growth, dry weight and lipid extract (gravimetric). The class given is cell-based.
Procedure: (§3) Batch cultures were grown in 500 mL Pyrex media bottles with stirring and air bubbling (homemade manifold with Petco air pump, 2-4% CO2). Incoming air was sterile filtered by Polyvent 4 disposable filters (Whatman, Kent, UK). […] To minimize bacterial contamination, all equipment and materials were autoclaved and media was added to flask in a Purifier Vertical Clean bench (Labconco, Kansas City, Mo.). […] The amount of DMSO is standardized for all experiments to 0.4%.
(§4) For all compound cultures, the 2 mL DMSO stock solution was added to media (without algae) first and mixed well. Control cultures were grown without DMSO. DMSO controls consisted of 0.04-1.0% DMSO. After the addition of algae and media, the container was plugged with a bug stopper vented closure cap and mixed thoroughly. Absorbance is measured immediately for Day 0 analysis. Afterward, absorbance was measured every 1-2 days with a cuvette (1 mL volume) on the Thermo Scientific Genesys 10S V is Spectrophotometer (ThermoFisher, San Jose) at 680 nm.
(§5) Batch cultures were also repeated in triplicate and compared to a control culture grown at the same time. Algae were harvested and lipids were extracted for gravimetric analysis.
(§6) The nonpolar algal extracts were harvested from 500 mL cultures when indicated on growth curves, a minimum of 3 days into stationary phase.
(§7) Cell density was monitored by measuring absorbance at 680 nm every 1-2 days.
(§8) 500-mL cultures were harvested 6 days into stationary phase based on absorbance values. Cells were concentrated by centrifugation and lyophilization to remove water. Nonpolar lipids were extracted by sonication and solvent (chloroform-methanol and PBS buffer). […] Changes in lipid levels for batch cultures were determined by crude lipid extract mass.
The test system of assay [8] is microalgae. Nature of the assay: Microplate assay (growth, Nile Red lipids), algae strain not stated. The conditions noted are these: microplate screening; strain not given; listed as (−)-epigallocatechin gallate.
In assay [9] the test system is Phaeodactylum tricornutum. Nature of the assay: 500 mL batch culture: growth, dry weight and lipid extract (gravimetric). The class given is cell-based. The conditions noted are these: P. tricornutum, 500 mL culture, 4 μM in water, two replicates.
Assay [10] deals with Nannochloris sp. Described as above. The class given is cell-based.
Procedure: as §3, §4, §5, §6, §7, §8
Assay [11] deals with Nannochloropsis salina. The description is as above. The class given is cell-based. Particulars: for Lipid productivity / Lipid content / Change in Lipids / Specific Growth Rate: N. salina; for Lipid content: dried lipid extract per dry biomass; for Change in Lipids: gravimetric, relative to averaged control without DMSO; for Specific Growth Rate: mid-exponential growth phase.
Procedure: as §3, §4, §5
Cultures were harvested at day 6 in stationary phase. Cultures were pelleted, lyophilized, and extracted side-by-side. The experiment was performed in triplicate.
The nonpolar algal extracts were harvested from 500 mL cultures when indicated on growth curves, a minimum of 3 days into stationary phase. […] Cells were crushed and nonpolar lipids were extracted by sonication (Fisher Scientific Model 120 Sonic Dismembrator, ThermoFisher, San Jose) for 1 minute in chloroform, followed by chloroform-methanol extractions, washed with PBS butter, and dried under vacuum.^55-60 The crude non-polar algae extracts were then analyzed by ^1H Nuclear Magnetic Resonance (^1H NMR) for verification of TAG presence and examination of the purity of the extract (determination of level of chlorophyll).
as §7, §8

Assay [12] concerns the target phosphatidylinositol-specific phospholipase C (PI-PLC). Particulars: cited from earlier work.
For assay [13], the target named is histone lysine methyltransferase G9a (Homo sapiens, UniProt Q96KQ7). Particulars: cited from earlier work.
The test system of assay [14] is Phaeodactylum tricornutum.
Procedure: The nonpolar algal extracts were harvested from 500 mL cultures when indicated on growth curves, a minimum of 3 days into stationary phase. […] Cells were crushed and nonpolar lipids were extracted by sonication (Fisher Scientific Model 120 Sonic Dismembrator, ThermoFisher, San Jose) for 1 minute in chloroform, followed by chloroform-methanol extractions, washed with PBS butter, and dried under vacuum.^55-60 The crude non-polar algae extracts were then analyzed by ^1H Nuclear Magnetic Resonance (^1H NMR) for verification of TAG presence and examination of the purity of the extract (determination of level of chlorophyll). […]
After the initial weight was recorded, the nonpolar extract set aside for transesterification was dissolved in 3.0 mL of 0.6 M sulfuric acid in methanol and stirred vigorously at 60° C. for 45 minutes. […]
as §1, §2
The mark [15] stands for this setting: higher concentrations (>400 nM), microplate.
Where [16] appears, read: 200 nM, initial microplate screen, relative to control.
Setting [17] is: 20 μM, initial microplate screen, relative to control.
[18] abbreviates: 40 μM, 500 mL culture, day 6 in stationary phase.
Where [19] appears, read: 500 mL culture, 4 μM in water, two replicates.

Sequence of CDK4/cyclin D1 (P11802 whole entry, species assumed): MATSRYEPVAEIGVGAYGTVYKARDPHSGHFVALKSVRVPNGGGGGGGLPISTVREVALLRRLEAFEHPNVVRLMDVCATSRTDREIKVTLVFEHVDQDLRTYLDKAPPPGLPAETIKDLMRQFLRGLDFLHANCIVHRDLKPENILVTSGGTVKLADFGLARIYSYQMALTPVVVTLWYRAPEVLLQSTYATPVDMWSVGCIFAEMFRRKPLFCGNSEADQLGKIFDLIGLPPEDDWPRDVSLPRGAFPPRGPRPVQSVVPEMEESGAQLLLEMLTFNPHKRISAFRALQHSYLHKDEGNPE
Sequence of CDK4/cyclin D1 (P24385 whole entry partner, species assumed): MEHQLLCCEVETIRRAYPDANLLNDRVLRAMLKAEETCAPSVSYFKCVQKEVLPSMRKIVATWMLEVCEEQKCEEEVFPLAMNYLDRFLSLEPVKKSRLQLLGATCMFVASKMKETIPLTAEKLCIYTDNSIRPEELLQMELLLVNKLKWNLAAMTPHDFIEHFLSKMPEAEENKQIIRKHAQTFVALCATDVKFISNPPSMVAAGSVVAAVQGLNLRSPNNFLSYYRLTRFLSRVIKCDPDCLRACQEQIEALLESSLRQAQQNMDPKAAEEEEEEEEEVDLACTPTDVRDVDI
Sequence of histone lysine methyltransferase G9a (Q96KQ7 whole entry): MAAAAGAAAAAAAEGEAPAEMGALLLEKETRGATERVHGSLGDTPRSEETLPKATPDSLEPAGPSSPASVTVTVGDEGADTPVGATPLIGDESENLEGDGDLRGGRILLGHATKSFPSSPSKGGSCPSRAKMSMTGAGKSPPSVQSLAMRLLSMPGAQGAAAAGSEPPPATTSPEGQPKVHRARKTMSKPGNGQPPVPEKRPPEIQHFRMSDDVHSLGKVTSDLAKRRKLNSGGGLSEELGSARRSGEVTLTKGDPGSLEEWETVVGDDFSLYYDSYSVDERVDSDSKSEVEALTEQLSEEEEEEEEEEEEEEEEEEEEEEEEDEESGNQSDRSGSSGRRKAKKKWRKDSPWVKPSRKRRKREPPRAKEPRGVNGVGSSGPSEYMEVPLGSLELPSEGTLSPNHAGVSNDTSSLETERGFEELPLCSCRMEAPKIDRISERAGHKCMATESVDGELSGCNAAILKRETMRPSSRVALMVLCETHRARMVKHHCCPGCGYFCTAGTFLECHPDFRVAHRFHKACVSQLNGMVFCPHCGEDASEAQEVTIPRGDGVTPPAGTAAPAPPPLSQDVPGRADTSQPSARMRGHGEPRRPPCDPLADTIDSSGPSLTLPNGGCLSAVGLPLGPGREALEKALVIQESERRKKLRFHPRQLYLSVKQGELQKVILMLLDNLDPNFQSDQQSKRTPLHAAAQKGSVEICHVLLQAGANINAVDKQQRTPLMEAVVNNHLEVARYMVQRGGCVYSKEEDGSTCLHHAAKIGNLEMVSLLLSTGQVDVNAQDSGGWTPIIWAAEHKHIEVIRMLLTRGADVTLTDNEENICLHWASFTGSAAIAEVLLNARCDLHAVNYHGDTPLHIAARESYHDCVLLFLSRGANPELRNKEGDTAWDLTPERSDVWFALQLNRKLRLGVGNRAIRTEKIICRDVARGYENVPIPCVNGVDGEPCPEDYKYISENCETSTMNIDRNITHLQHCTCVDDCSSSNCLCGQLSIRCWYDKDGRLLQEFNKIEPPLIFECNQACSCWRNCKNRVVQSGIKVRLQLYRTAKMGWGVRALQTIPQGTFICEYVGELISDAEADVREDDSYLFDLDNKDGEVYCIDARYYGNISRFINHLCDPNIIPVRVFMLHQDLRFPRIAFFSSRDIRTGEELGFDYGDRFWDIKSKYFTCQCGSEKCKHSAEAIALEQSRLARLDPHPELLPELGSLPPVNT

In the case of `Cc1c(C)c2c(c(C)c1O)CC[C@@](C)(CCC[C@H](C)CCC[C@H](C)CCCC(C)C)O2` (racemic) [DL-α-Tocopherol (Vitamin E), (2R)-2,5,7,8-tetramethyl-2-[(4R,8R)-4,8,12-trimethyltridecyl]-3,4-dihydrochromen-6-ol], in the assay with Nannochloropsis sp., the “% Inc” value was determined as 31.44%.
A word on the IC50: it is the concentration at which inhibition is half-maximal. Take `O=C(O[C@@H]1Cc2c(O)cc(O)cc2O[C@@H]1c1ccc(O)c(O)c1)c1cc(O)c(O)c(O)c1` [(−)-epicatechin gallate, [(2R,3R)-2-(3,4-dihydroxyphenyl)-5,7-dihydroxy-3,4-dihydro-2H-chromen-3-yl] 3,4,5-trihydroxybenzoate]: the “effect on lipid production / lipid levels” value (with Nannochloropsis salina [1]; in the assay on Nannochloris sp. [2]; in [3]; in the assay with Nannochloropsis oculata [4]) was “lipid production increased” in each case. Further, in assay [3] (best conc. 156 nM), the “% Inc” value is 77.89%. The “concentration of the highest lipid increase” value in assay [3] (microplate, catechin screen (FIG. 14)) was in the range of 39 to 56 nM. For the same compound, the IC50 in the assay with FABI was 200 nM.
Take `O=C1NC(=O)c2c1c1c3ccccc3[nH]c1c1[nH]c3cc(Br)ccc3c21` [CDK4 Inhibitor 3, 2-Bromo-12,13-dihydro-5H-indolo[2,3a]pyrrolo[3,4-c]carbazole-5,7(6H)-dione]: the IC50 was 6000 nM at CDK4/cyclin D1 (CDK4/D1) and greater than 200000 nM at Cdk2/cyclin A.
On to `COc1ccc(OC)c2c(=S)c3ccccc3[nH]c12` [CDK4 Inhibitor II NSC], for which the IC50 on CDK4/cyclin D1 (CDK4/cyclin D1) is 200 nM.
Take `O=C(O[C@@H]1Cc2c(O)cc(O)cc2O[C@@H]1c1cc(O)c(O)c(O)c1)c1cc(O)c(O)c(O)c1` [EGCG, [(2R,3R)-5,7-dihydroxy-2-(3,4,5-trihydroxy-phenyl)-3,4-dihydro-2H-chromen-3-yl] 3,4,5-trihydroxybenzoate]: in the assay with Nannochloropsis salina [1] (N. salina, 493 nM, DMSO delivery, added t=day 0), the “% Increase based on Nile Red Fluorescence Intensity” value is reported as 87%. Also, the lipid increase (in the assay with Nannochloropsis salina [1] (setting [15]); in the assay with Nannochloris sp. [2] (setting [15]); in assay [3] (setting [15])) was greater than 100% throughout. For the same compound, the “effect on lipid production / lipid levels” value (with Nannochloropsis salina [1]; in the assay on Nannochloris sp. [2]; in assay [3]; with Nannochloropsis oculata [4]) was “lipid production increased” throughout. Besides, the “effect on growth and lipid levels” value is “positive increases in growth and lipid levels” in the assay on microalgae [5] (500 mL batch cultures (Table 30)); “increased growth and lipid extract levels” in the assay on Nannochloropsis oculata [7] (500 mL batch culture); “increased growth and lipid extract levels” in the assay on Nannochloris sp. [10] (500 mL batch culture); “increased growth and lipid extract levels” in the assay with Nannochloropsis salina [11] (500 mL batch culture). The “increase of lipids by dry weight” value in the assay on microalgae [5] (500 mL cultures (FIG. 19)) is greater than 40%. The “Nile Red percent increase” value in the assay with Nannochloris sp. [2] (6 nM, dose-response microplate screen) was found to be 436%; with Nannochloris sp. [2] (18.6 nM, dose-response microplate screen), 199%; with Nannochloris sp. [2] (55 nM, dose-response microplate screen) it was 107%; in the assay on Nannochloris sp. [2] (setting [16]), 92.1%; in the assay with Nannochloris sp. [2] (setting [17]) it was 92.5%. Further, the “Absorbance (percent increase)” value in the assay on Nannochloris sp. [2] (setting [16]) is reported as −1.0%; in the assay with Nannochloris sp. [2] (setting [17]), “+1.9%”. Also, the “Nile Red Fluorescence % Increase” value with Nannochloris sp. [2] (compounds tested at 20 μM) is reported as 214.9%; with Nannochloropsis oculata [4] (N. oculata, compounds tested at 200 nM, initial screening, p<0.05), 207.5%. In addition, in the assay on Nannochloropsis oculata [6] (4 μM, 1H NMR, Normal 24), the “SFAs (% of total lipids)” value is 57 % of total lipids. Moreover, the “n3 PUFAs (% of UFAs)” value in the assay on Nannochloropsis oculata [6] (4 μM, 1H NMR, Normal 37) was 65 % of UFAs. In addition, in the assay on Nannochloropsis oculata [6] (4 μM, 1H NMR, Normal 63), the “All other PUFAs and MUFAs (% of UFAs)” value is 35 % of UFAs. In addition, the “UFAs (% of total lipids)” value in the assay on Nannochloropsis oculata [6] (4 μM, 1H NMR, Normal 76) is on record as 43 % of total lipids. In addition, in the assay with Nannochloropsis oculata [6] (N. oculata, 400 nM, n=1, Normal 0 ± 1), the “SFAs (%)” value amounted to 10%. The “MUFAs (%)” value in the assay with Nannochloropsis oculata [6] (N. oculata, 400 nM, n=1, Normal 4 ± 7) is listed as 5%. Further, the “n3 PUFAs (%)” value in the assay on Nannochloropsis oculata [6] (N. oculata, 400 nM, n=1, Normal 28 ± 4) is recorded as 20%. Besides, the “PUFAs (%)” value in the assay on Nannochloropsis oculata [6] (N. oculata, 400 nM, n=1, Normal 96 ± 7) turned out to be 85%. In addition, the Absorbance at harvest was determined as 1.855 ± 0.142 in the assay with Nannochloropsis oculata [7] (N. oculata, 400 nM EGCG, n=4) and 1.41 ± 0.08 in the assay with Nannochloropsis salina [11] (setting [18]). Besides, the Dry weight in the assay on Nannochloropsis oculata [7] (N. oculata, 400 nM EGCG, n=4) was determined as 290.7 ± 34.5; in the assay on Nannochloropsis salina [11] (setting [18]), 337.40 ± 62.55 mg. Also, the “Extract Weight” value with Nannochloropsis oculata [7] (N. oculata, 400 nM EGCG, n=4) was 62.3 ± 21.6; in the assay with Nannochloropsis salina [11] (setting [18]), 94.77 ± 9.47 mg. The Lipid productivity is given as 4.9 ± 1.7 mgL^−1day^−1 in the assay with Nannochloropsis oculata [7] (N. oculata, 500 mL culture, 4 μM); 4.4 ± 2.4 mgL^−1day^−1 in [9]; 4.3 ± 0.8 mgL^−1day^−1 in the assay with Nannochloris sp. [10] (Nannochloris sp., 500 mL culture, 40 nM); 7.1 ± 1.2 mgL^−1day^−1 in the assay on Nannochloropsis salina [11] (setting [19]); 6.3 ± 2.2 mgL^−1day^−1 in the assay with Nannochloropsis salina [11] (500 mL culture, 40 μM). Besides, the Lipid content stood at 20.6 ± 6.9 % w/w in the assay on Nannochloropsis oculata [7] (N. oculata, 500 mL culture, 4 μM, dried lipid extract per dry biomass); 17.2 ± 1.3 % w/w in assay [9] (dried lipid extract per dry biomass); 32.4 ± 0.1 % w/w in the assay with Nannochloropsis salina [11] (setting [19]); 23.1 ± 10.6 % w/w in the assay on Nannochloropsis salina [11] (500 mL culture, 40 μM). Also, the “Change in Lipids” value with Nannochloropsis oculata [7] (N. oculata, 500 mL culture, 4 μM, gravimetric, relative to averaged control without DMSO) turned out to be 41%; in assay [9] (gravimetric, relative to averaged control without DMSO), 6%; in the assay with Nannochloris sp. [10] (Nannochloris sp., 500 mL culture, 40 nM, gravimetric, relative to averaged control without DMSO), 39%; in the assay on Nannochloropsis salina [11] (setting [19]), 46%; with Nannochloropsis salina [11] (500 mL culture, 40 μM), 18%. The “Specific Growth Rate” value in the assay on Nannochloropsis oculata [7] (N. oculata, 500 mL culture, 4 μM, mid-exponential growth phase) turned out to be 0.17 ± 0.03 day⁻¹; in [9] (mid-exponential growth phase), 0.19 ± 0.02 day⁻¹; with Nannochloris sp. [10] (Nannochloris sp., 500 mL culture, 40 nM, mid-exponential growth phase), 0.17 ± 0.03 day⁻¹; with Nannochloropsis salina [11] (setting [19]) it was 0.24 ± 0.01 day⁻¹; in the assay on Nannochloropsis salina [11] (500 mL culture, 40 μM), 0.22 ± 0.06 day⁻¹. In addition, the “effect on lipid levels” value with Nannochloropsis oculata [7] (batch culture, combined with sodium bicarbonate addition) is listed as “increases lipid levels”. The “increase in (intracellular) lipid levels, Nile Red” value in the assay with microalgae [8] is given as “more than 100%”. For the same compound, the “% Inc” value in [3] (best conc. 10 nM) worked out at 45.03%. Moreover, the “Number of Cells” value in the assay on Nannochloropsis salina [11] (setting [18]) turned out to be 1.36E+09. In addition, the “Recovered Weight” value with Nannochloropsis salina [11] (setting [18]) is 330.03 ± 78.14 mg. Moreover, the IC50 in the assay with FABI (FABI (FAB1)) is 200 nM.
`CCCCCCCCCCCCCCCCCCOCC(COP(=O)([O-])OCC[N+](C)(C)C)OC` (centres unmarked) [ET-18-OCH3, 2-Methoxy-3-(octadecyloxy)propyl 2-(trimethylammonio)ethyl phosphate]: the IC50 in [12] was 9600 nM. Further, the “% change in abs” value in the assay on Nannochloropsis oculata [4] (N. oculata, 10 μM) is recorded as 5.73%; in the assay on Nannochloropsis oculata [4] (N. oculata, 40 μM), −5.90%. Also, the “% in NR fl” value in the assay with Nannochloropsis oculata [4] (N. oculata, 10 μM) was found to be 50.05%; with Nannochloropsis oculata [4] (N. oculata, 40 μM) it was 57.25%.
For `COC(=O)C=Cc1cc(O)ccc1O` [Erbstatin analog, 2,5-Dihydroxymethylcinnamate], in the assay on Nannochloris sp. [2] (setting [16]), the “Absorbance (percent increase)” value is recorded as −7.6% and the “Nile Red percent increase” value was 90.7%. The “Nile Red Fluorescence % Increase” value with Nannochloris sp. [2] (compounds tested at 200 nM) is listed as 80.2%. In addition, the “Nile Red Fluorescence % Increase” value with Nannochloris sp. [2] (compounds tested at 20 μM) is on record as 40.5%. Further, the IC50 in [13] was 2820 nM.
In the case of `O=C([O-])O.[Na+]` [sodium bicarbonate], in assay [14], the “effect on PUFA levels” value was “increases PUFA levels”.
